These results are taken from US9895324B2, “Halogenated diarylacetylenes and methods of treating cancer” (UNIVERSITY OF KENTUCKY RESEARCH FOUNDATION, priority 2014, dated 2018).

Entries after “also recorded” stand apart in the source; their conditions may differ. Like-named read-outs stand apart in the source and are kept apart here.

In data set [1] the target is catalytic subunit of methionine S-adenosyltransferase-2 (MAT-2) (Homo sapiens, UniProt P31153). The settings on record: cited from earlier work.
The test system of another data set is LS174T cells. The data set can be described thus: Cell proliferation assay, LS174T colon cancer cells. Type of data set: cell-based. How it is done:
Cell Proliferation Assay.
LS174T cells were grown in RPMI medium (Mediatech) supplemented with 5% fetal bovine serum and 1% penicillin/streptomycin. For cell proliferation assays, 3×10^4 cells/well growing in 12-well plates were treated with DMSO or inhibitors. The cell numbers and viability were analyzed by Vi-Cell Cell Viability Analyzer after 4 days. The IC50 values were calculated with GraphPad Prim 5.

The next data set deals with MAT2 (Homo sapiens, UniProt P31153). Kind of data set: MAT2A inhibition assay. Type of data set: biochemical. The settings on record: compared with stilbene 1. From the text:
We reported previously that stilbenes repressed colon cancer cell proliferation by inhibiting c-myc expression and inducing the cell cycle inhibitor, p21(Wif1/Cip1). See Zhang et al. J Med Chem 2011: 54:1288-1297. The similarity of the diarylacetylenes to the stilbenes also prompted an in silico modeling study of the binding of (E)-4-(2′,6′-difluorostyryl)-N,N-dimethylaniline (1) and 4((2,6-difluorophenyl)ethynyl)-N,N-dimethylaniline (2m). It was believed that para-oriented amino-substituents, such as the N-methylamino and N,N-dimethylamino groups, were associated with potent MAT2A inhibition. […] Variability in the MAT2A inhibition assay made the measurement of c-myc inhibition a preferred analytical tool for assessing the potency of diarylacetylenes.

Setting [2] is: Homo sapiens, LS174T, 96 h, 4 days, read-out: Inhibition of LS174T Cell Proliferation IC50.
The mark [3] stands for this setting: 4 days, read-out: Inhibition of LS174T Cell Proliferation IC50.

catalytic subunit of methionine S-adenosyltransferase-2 (MAT-2), sequence (P31153 whole entry): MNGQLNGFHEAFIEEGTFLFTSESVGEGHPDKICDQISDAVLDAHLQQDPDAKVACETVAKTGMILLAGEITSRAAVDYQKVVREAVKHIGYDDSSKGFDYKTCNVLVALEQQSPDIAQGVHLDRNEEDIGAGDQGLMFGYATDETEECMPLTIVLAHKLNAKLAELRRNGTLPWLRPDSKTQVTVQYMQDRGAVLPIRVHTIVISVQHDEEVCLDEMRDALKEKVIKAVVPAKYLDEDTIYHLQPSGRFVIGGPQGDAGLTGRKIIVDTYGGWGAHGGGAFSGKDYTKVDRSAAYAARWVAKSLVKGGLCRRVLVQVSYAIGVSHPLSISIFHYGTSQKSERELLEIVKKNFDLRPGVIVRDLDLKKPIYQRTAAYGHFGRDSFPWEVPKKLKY
MAT2, sequence (P31153 whole entry): as above

In the case of `CN(C)c1ccc(/C=C/c2c(F)cccc2F)cc1` [Compound 1, (E)-4-(2′,6′-difluorostyryl)-N,N-dimethylaniline, reference compound], the Molecular target entry in data set [1] is “targeted exclusively the catalytic subunit of methionine S-adenosyltransferase-2 (MAT-2)”. The IC50 in the data set with LS174T cells (setting [2]) stood at 0.059 ± 0.0075 µM.

As usually defined, the melting point is the temperature of the solid-liquid transition. `Nc1ccc(C#Cc2c(F)cccc2F)cc1` [Compound 2a, 4-((2,6-Difluorophenyl)ethynyl)aniline] had a melting point of 104 to 105 °C. In the data set on LS174T cells (setting [2]), the IC50 was determined as 0.055 ± 0.0078 µM. Further, in the data set with LS174T cells (Homo sapiens, LS174T, read-out: IC50 (inhibition of LS174T cell proliferation)), the IC50 turned out to be 0.055 ± 0.0078 µM.

The compound `CNc1ccc(C#Cc2c(F)cccc2F)cc1` [Compound 2b, 4-((2,6-Difluorophenyl)ethynyl)-N-methylaniline] came in with a melting point of 69 to 70 °C.

On to `CN(C)c1ccc(C#Cc2ccccc2)cc1` [Compound 2c, N,N-Dimethyl-4-(phenylethynyl)aniline], for which the melting point lay in the range of 104 to 106 °C. For the same compound, in the data set on LS174T cells, the “Potency as inhibitor of LS174T cell proliferation (in words)” value (“Potency as inhibitor” below) is on record as “very low potency”. The IC50 with LS174T cells (setting [2]) was over 3 µM.

For the compound `CN(C)c1ccc(C#Cc2ccccc2F)cc1` [Compound 2d, 4-((2-Fluorophenyl)ethynyl)-N,N-dimethylaniline], the melting point was 94 to 96 °C. Besides, the IC50 in the data set on LS174T cells (setting [3]) worked out at 0.039 ± 0.006 µM. The IC50 with LS174T cells (setting [2]) is under 0.05 µM.

With `CN(C)c1ccc(C#Cc2ccccc2Cl)cc1` [Compound 2e, 4-((2-Chlorophenyl)ethynyl)-N,N-dimethylaniline], the melting point lay within 108 to 110 °C. Also, in the data set on LS174T cells (setting [3]), the IC50 stood at 0.031 ± 0.0031 µM. The IC50 in the data set on LS174T cells (setting [2]) was under 0.05 µM.

In turn, `CN(C)c1ccc(C#Cc2cccc(F)c2)cc1` [Compound 2f, 4-((3-Fluorophenyl)ethynyl)-N,N-dimethylaniline] came in with a melting point of 99 to 100 °C. The “Potency as inhibitor” value in the data set with LS174T cells is “significantly less active”. Besides, the IC50 in the data set with LS174T cells (setting [2]) was over 3 µM.

As to `CN(C)c1ccc(C#Cc2ccc(F)cc2)cc1` [Compound 2g, 4-((4-Fluorophenyl)ethynyl)-N,N-dimethylaniline], the melting point is 132 to 134 °C. Further, the “Potency as inhibitor” value with LS174T cells was “very low potency; also recorded: significantly less active”. For the same compound, in the data set with LS174T cells (setting [2]), the IC50 is over 3 µM.

In turn, `CN(C)c1ccc(C#Cc2cccc(F)c2F)cc1` [Compound 2h, 4-((2,3-Difluorophenyl)ethynyl)-N,N-dimethylaniline] had a melting point of 104 to 106 °C. For the same compound, in the data set with LS174T cells (setting [2]), the IC50 came out at 0.119 ± 0.0046 µM.

The compound `CN(C)c1ccc(C#Cc2ccc(F)cc2F)cc1` [Compound 2i, 4-((2,4-Difluorophenyl)ethynyl)-N,N-dimethylaniline] registered a melting point of 116 to 118 °C. Also, in the data set on LS174T cells (setting [2]), the IC50 was 0.056 ± 0.0081 µM.

Consider `CN(C)c1ccc(C#Cc2ccc(F)c(F)c2)cc1` [Compound 2j, 4-((3,4-Difluorophenyl)ethynyl)-N,N-dimethylaniline], for which the melting point was in the range of 100 to 101 °C. In addition, the “Potency as inhibitor” value in the data set with LS174T cells is “significantly less active”. The IC50 in the data set on LS174T cells (setting [2]) is over 3 µM.

For the compound `CN(C)c1ccc(C#Cc2cc(F)cc(F)c2)cc1` [Compound 2k, 4-((3,5-Difluorophenyl)ethynyl)-N,N-dimethylaniline], the melting point is 72 to 74 °C. Also, the “Potency as inhibitor” value in the data set on LS174T cells is “significantly less active”. The IC50 in the data set on LS174T cells (setting [2]) is over 3 µM.

`CN(C)c1ccc(C#Cc2cc(F)ccc2F)cc1` [Compound 2l, 4-((2,5-Difluorophenyl)ethynyl)-N,N-dimethylaniline] came in with a melting point of 106 to 107 °C. For the same compound, the IC50 in the data set on LS174T cells (setting [2]) stood at 0.055 ± 0.006 µM.

As to `CN(C)c1ccc(C#Cc2c(F)cccc2F)cc1` [Compound 2m, 4-((2,6-Difluorophenyl)ethynyl)-N,N-dimethylaniline], at MAT2, the “MAT2 inhibition (in words, data not shown)” value is on record as “inhibited MAT2 at concentrations comparable to that of the stilbene 1”.

`CN(C)c1ccc(C#Cc2c(F)cccc2Cl)cc1` [Compound 2n, 4-((2-Chloro-6-fluorophenyl)ethynyl)-N,N-dimethylaniline]: the melting point fell in the range of 86 to 88 °C.

Compound `CN(C)c1ccc(C#Cc2c(Cl)cccc2Cl)cc1` [Compound 2o, 4-((2,6-Dichlorophenyl)ethynyl)-N,N-dimethylaniline] returned a melting point of 96 to 98 °C. Besides, the IC50 with LS174T cells (setting [2]) was 0.052 ± 0.0071 µM.
